Measurements: ChEMBL document CHEMBL3616405 (J Med Chem, 2015)

Columns and labels:
[1] = target: T1, Glucagon-like peptide 1 receptor (Homo sapiens, UniProt P43220); assay: Agonist activity at human GLP1 receptor expressed in BHK cells after 3 hrs by CRE firefly luciferase reporter gene assay in absence of human serum albumin; type: functional, cell-based
[2] = target: T1, Glucagon-like peptide 1 receptor; assay: Displacement of [125I]-GLP1 from human GLP1 receptor expressed in BHK cells after 2 hrs in presence of 2% human serum albumin; type: cell-based
[3] = target: T1, Glucagon-like peptide 1 receptor; assay: Displacement of [125I]-GLP1 from human GLP1 receptor expressed in BHK cells after 2 hrs in absence of human serum albumin; type: cell-based

T1 sequence (P43220 whole entry): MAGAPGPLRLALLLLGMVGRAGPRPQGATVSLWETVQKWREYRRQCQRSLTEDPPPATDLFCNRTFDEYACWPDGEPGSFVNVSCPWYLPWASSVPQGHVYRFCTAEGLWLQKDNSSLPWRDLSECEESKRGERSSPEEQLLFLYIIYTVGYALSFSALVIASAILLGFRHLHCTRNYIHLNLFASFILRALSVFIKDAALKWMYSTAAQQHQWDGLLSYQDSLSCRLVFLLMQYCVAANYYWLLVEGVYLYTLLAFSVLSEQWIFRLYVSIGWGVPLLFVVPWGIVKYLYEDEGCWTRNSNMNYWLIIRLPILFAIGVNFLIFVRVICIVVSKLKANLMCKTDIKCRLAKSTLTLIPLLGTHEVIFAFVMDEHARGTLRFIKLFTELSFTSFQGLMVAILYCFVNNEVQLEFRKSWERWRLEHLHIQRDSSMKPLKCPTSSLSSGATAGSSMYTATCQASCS

| Compound | EC50 [1] [nM] | IC50 [2] [nM] | IC50 [3] [nM] |
| --- | --- | --- | --- |
| CC[C@H](C)[C@H](NC(=O)[C@H](Cc1ccccc1)NC(=O)[C@H](CCC(=O)O)NC(=O)[C@H](CCCCNC(=O)CCCCCCCCCCCCCCCCC(=O)O)NC(=O)[C@H](C)NC(=O)[C@H](C)NC(=O)[C@H](CCC(N)=O)NC(=O)CNC(=O)[C@H](CCC(=O)O)NC(=O)[C@H](CC(C)C)NC(=O)[C@H](Cc1ccc(O)cc1)NC(=O)[C@H](CO)NC(=O)[C@H](CO)NC(=O)[C@@H](NC(=O)[C@H](CC(=O)O)NC(=O)[C@H](CO)NC(=O)[C@@H](NC(=O)[C@H](Cc1ccccc1)NC(=O)[C@@H](NC(=O)CNC(=O)[C@H](CCC(=O)O)NC(=O)C(C)(C)NC(=O)[C@@H](N)Cc1c[nH]cn1)[C@@H](C)O)[C@@H](C)O)C(C)C)C(=O)N[C@@H](C)C(=O)N[C@@H](Cc1c[nH]c2ccccc12)C(=O)N[C@@H](CC(C)C)C(=O)N[C@H](C(=O)N[C@@H](CCCNC(=N)N)C(=O)NCC(=O)N[C@@H](CCCNC(=N)N)C(=O)NCC(=O)O)C(C)C | 0.269 | 27 | 1.86 |
| CC[C@H](C)[C@H](NC(=O)[C@H](Cc1ccccc1)NC(=O)[C@H](CCC(=O)O)NC(=O)[C@H](CCCCN)NC(=O)[C@H](C)NC(=O)[C@H](C)NC(=O)[C@H](CCC(N)=O)NC(=O)CNC(=O)[C@H](CCC(=O)O)NC(=O)[C@H](CC(C)C)NC(=O)[C@H](Cc1ccc(O)cc1)NC(=O)[C@H](CO)NC(=O)[C@H](CO)NC(=O)[C@H](CCCCNC(=O)COCCOCCNC(=O)COCCOCCNC(=O)CC[C@H](NC(=O)CCCCCCCCCCCCCCCCC(=O)O)C(=O)O)NC(=O)[C@H](CC(=O)O)NC(=O)[C@H](CO)NC(=O)[C@@H](NC(=O)[C@H](Cc1ccccc1)NC(=O)[C@@H](NC(=O)CNC(=O)[C@H](CCC(=O)O)NC(=O)C(C)(C)NC(=O)[C@@H](N)Cc1c[nH]cn1)[C@@H](C)O)[C@@H](C)O)C(=O)N[C@@H](C)C(=O)N[C@@H](Cc1c[nH]c2ccccc12)C(=O)N[C@@H](CC(C)C)C(=O)N[C@H](C(=O)N[C@@H](CCCCN)C(=O)NCC(=O)N[C@@H](CCCNC(=N)N)C(=O)NCC(=O)O)C(C)C | 0.0099 | 25.5 | 0.5 |
| CC[C@H](C)[C@H](NC(=O)[C@H](Cc1ccccc1)NC(=O)[C@H](CCC(=O)O)NC(=O)[C@H](CCCNC(=N)N)NC(=O)[C@H](C)NC(=O)[C@H](C)NC(=O)[C@H](CCC(N)=O)NC(=O)CNC(=O)[C@H](CCC(=O)O)NC(=O)[C@H](CC(C)C)NC(=O)[C@H](Cc1ccc(O)cc1)NC(=O)[C@H](CO)NC(=O)[C@H](CO)NC(=O)[C@@H](NC(=O)[C@H](CC(=O)O)NC(=O)[C@H](CO)NC(=O)[C@@H](NC(=O)[C@H](Cc1ccccc1)NC(=O)[C@@H](NC(=O)CNC(=O)[C@H](CCC(=O)O)NC(=O)C(C)(C)NC(=O)[C@@H](N)Cc1c[nH]cn1)[C@@H](C)O)[C@@H](C)O)C(C)C)C(=O)N[C@@H](C)C(=O)N[C@@H](Cc1c[nH]c2ccccc12)C(=O)N[C@@H](CC(C)C)C(=O)N[C@H](C(=O)N[C@@H](CCCNC(=N)N)C(=O)NCC(=O)N[C@@H](CCCNC(=N)N)C(=O)NCC(=O)N[C@@H](CCCCNC(=O)CCCCCCCCCCCCCCCCC(=O)O)C(=O)O)C(C)C | 0.0873 | 7.55 | 0.31 |
| CC[C@H](C)[C@H](NC(=O)[C@H](Cc1ccccc1)NC(=O)[C@H](CCC(=O)O)NC(=O)[C@H](CCCCNC(=O)COCCOCCNC(=O)COCCOCCNC(=O)CCCCCCCCCCCCCCC(=O)O)NC(=O)[C@H](C)NC(=O)[C@H](C)NC(=O)[C@H](CCC(N)=O)NC(=O)CNC(=O)[C@H](CCC(=O)O)NC(=O)[C@H](CC(C)C)NC(=O)[C@H](Cc1ccc(O)cc1)NC(=O)[C@H](CO)NC(=O)[C@H](CO)NC(=O)[C@@H](NC(=O)[C@H](CC(=O)O)NC(=O)[C@H](CO)NC(=O)[C@@H](NC(=O)[C@H](Cc1ccccc1)NC(=O)[C@@H](NC(=O)CNC(=O)[C@H](CCC(=O)O)NC(=O)C(C)(C)NC(=O)[C@@H](N)Cc1c[nH]cn1)[C@@H](C)O)[C@@H](C)O)C(C)C)C(=O)N[C@@H](C)C(=O)N[C@@H](Cc1c[nH]c2ccccc12)C(=O)N[C@@H](CC(C)C)C(=O)N[C@H](C(=O)N[C@@H](CCCNC(=N)N)C(=O)NCC(=O)N[C@@H](CCCNC(=N)N)C(=O)NCC(=O)O)C(C)C | 0.166 | 12.8 | 3.25 |

The remaining lines, values ahead:

| EC50 [1] [nM] | IC50 [2] [nM] | IC50 [3] [nM] | Compound |
| --- | --- | --- | --- |
| 0.0157 | 8.87 | 2.65 | CC[C@H](C)[C@H](NC(=O)[C@H](Cc1ccccc1)NC(=O)[C@H](CCC(=O)O)NC(=O)[C@H](CCCCNC(=O)COCCOCCNC(=O)COCCOCCNC(=O)CC[C@H](NC(=O)CCCCCCCCCCCCC(=O)O)C(=O)O)NC(=O)[C@H](C)NC(=O)[C@H](C)NC(=O)[C@H](CCC(N)=O)NC(=O)CNC(=O)[C@H](CCC(=O)O)NC(=O)[C@H](CC(C)C)NC(=O)[C@H](Cc1ccc(O)cc1)NC(=O)[C@H](CO)NC(=O)[C@H](CO)NC(=O)[C@@H](NC(=O)[C@H](CC(=O)O)NC(=O)[C@H](CO)NC(=O)[C@@H](NC(=O)[C@H](Cc1ccccc1)NC(=O)[C@@H](NC(=O)CNC(=O)[C@H](CCC(=O)O)NC(=O)C(C)(C)NC(=O)[C@@H](N)Cc1c[nH]cn1)[C@@H](C)O)[C@@H](C)O)C(C)C)C(=O)N[C@@H](C)C(=O)N[C@@H](Cc1c[nH]c2ccccc12)C(=O)N[C@@H](CC(C)C)C(=O)N[C@H](C(=O)N[C@@H](CCCNC(=N)N)C(=O)NCC(=O)N[C@@H](CCCNC(=N)N)C(=O)NCC(=O)O)C(C)C |
| 0.0048 | 0.88 | 0.18 | CCCCCCCCCCCCCCCCCCCC(=O)N[C@@H](CCC(=O)NCCOCCOCC(=O)NCCOCCOCC(=O)NCCCC[C@H](NC(=O)[C@H](C)NC(=O)[C@H](C)NC(=O)[C@H](CCC(N)=O)NC(=O)CNC(=O)[C@H](CCC(=O)O)NC(=O)[C@H](CC(C)C)NC(=O)[C@H](Cc1ccc(O)cc1)NC(=O)[C@H](CO)NC(=O)[C@H](CO)NC(=O)[C@@H](NC(=O)[C@H](CC(=O)O)NC(=O)[C@H](CO)NC(=O)[C@@H](NC(=O)[C@H](Cc1ccccc1)NC(=O)[C@@H](NC(=O)CNC(=O)[C@H](CCC(=O)O)NC(=O)C(C)(C)NC(=O)[C@@H](N)Cc1c[nH]cn1)[C@@H](C)O)[C@@H](C)O)C(C)C)C(=O)N[C@@H](CCC(=O)O)C(=O)N[C@@H](Cc1ccccc1)C(=O)N[C@H](C(=O)N[C@@H](C)C(=O)N[C@@H](Cc1c[nH]c2ccccc12)C(=O)N[C@@H](CC(C)C)C(=O)N[C@H](C(=O)N[C@@H](CCCNC(=N)N)C(=O)NCC(=O)N[C@@H](CCCNC(=N)N)C(=O)NCC(=O)O)C(C)C)[C@@H](C)CC)C(=O)O |
| 0.0244 | 24.8 | 0.21 | CC[C@H](C)[C@H](NC(=O)[C@H](Cc1ccccc1)NC(=O)[C@H](CCC(=O)O)NC(=O)[C@H](CCCCNC(=O)COCCOCCNC(=O)COCCOCCNC(=O)CC[C@H](NC(=O)CCCCCCCCCCCCCCCCCCCCC(=O)O)C(=O)O)NC(=O)[C@H](C)NC(=O)[C@H](C)NC(=O)[C@H](CCC(N)=O)NC(=O)CNC(=O)[C@H](CCC(=O)O)NC(=O)[C@H](CC(C)C)NC(=O)[C@H](Cc1ccc(O)cc1)NC(=O)[C@H](CO)NC(=O)[C@H](CO)NC(=O)[C@@H](NC(=O)[C@H](CC(=O)O)NC(=O)[C@H](CO)NC(=O)[C@@H](NC(=O)[C@H](Cc1ccccc1)NC(=O)[C@@H](NC(=O)CNC(=O)[C@H](CCC(=O)O)NC(=O)C(C)(C)NC(=O)[C@@H](N)Cc1c[nH]cn1)[C@@H](C)O)[C@@H](C)O)C(C)C)C(=O)N[C@@H](C)C(=O)N[C@@H](Cc1c[nH]c2ccccc12)C(=O)N[C@@H](CC(C)C)C(=O)N[C@H](C(=O)N[C@@H](CCCNC(=N)N)C(=O)NCC(=O)N[C@@H](CCCNC(=N)N)C(=O)NCC(=O)O)C(C)C |
